Data as given in the NIST ThermoML archive (doi:10.1007/s10765-011-1052-5).
Values joined by “and” are separate entries in the source; they are usually repeats but may differ in a detail not shown here. Equal entries are not always repeated.

Conditions: Fluid (supercritical or subcritical phases), Hot wire method

[HH] [hydrogen]
Conditions | thermal conductivity
323.19 K, 5191 kPa | 0.2032 W/m/K
323.19 K, 5193 kPa | 0.2032 W/m/K
323.19 K, 10094 kPa | 0.2067 W/m/K
323.19 K, 10100 kPa | 0.2065 W/m/K
323.2 K, 261 kPa | 0.1971 W/m/K and 0.197 W/m/K
323.2 K, 266 kPa | 0.1971 W/m/K
323.2 K, 267 kPa | 0.1973 W/m/K
323.2 K, 5186 kPa | 0.2029 W/m/K
323.2 K, 5188 kPa | 0.2031 W/m/K
323.2 K, 5190 kPa | 0.2031 W/m/K
323.2 K, 10084 kPa | 0.2067 W/m/K
323.2 K, 10087 kPa | 0.2067 W/m/K
323.2 K, 10095 kPa | 0.2065 W/m/K
323.2 K, 19987 kPa | 0.2147 W/m/K
323.2 K, 19989 kPa | 0.2142 W/m/K
323.2 K, 19998 kPa | 0.2146 W/m/K
323.2 K, 20000 kPa | 0.2142 W/m/K
323.2 K, 39984 kPa | 0.2311 W/m/K
323.2 K, 39993 kPa | 0.2306 W/m/K
323.2 K, 40006 kPa | 0.2312 W/m/K
323.2 K, 40011 kPa | 0.2304 W/m/K
323.2 K, 40020 kPa | 0.2313 W/m/K
323.2 K, 59948 kPa | 0.2488 W/m/K
323.2 K, 59968 kPa | 0.2483 W/m/K
323.2 K, 59985 kPa | 0.2488 W/m/K
323.2 K, 59986 kPa | 0.2482 W/m/K
323.2 K, 79963 kPa | 0.2659 W/m/K
323.2 K, 79984 kPa | 0.2654 W/m/K
323.2 K, 80001 kPa | 0.2659 W/m/K
323.2 K, 80012 kPa | 0.2648 W/m/K
323.2 K, 80034 kPa | 0.2657 W/m/K
323.2 K, 97707 kPa | 0.2804 W/m/K
323.2 K, 97716 kPa | 0.282 W/m/K
323.2 K, 97745 kPa | 0.2813 W/m/K
323.2 K, 97753 kPa | 0.2816 W/m/K
323.2 K, 97762 kPa | 0.2814 W/m/K
323.21 K, 19980 kPa | 0.2147 W/m/K
323.21 K, 59935 kPa | 0.2488 W/m/K
373.22 K, 598 kPa | 0.2223 W/m/K and 0.2224 W/m/K
373.22 K, 599 kPa | 0.2225 W/m/K
373.22 K, 5170 kPa | 0.2262 W/m/K and 0.226 W/m/K and 0.2261 W/m/K
373.22 K, 70084 kPa | 0.2757 W/m/K and 0.2758 W/m/K
373.22 K, 70086 kPa | 0.2758 W/m/K
373.22 K, 98187 kPa | 0.2983 W/m/K
373.22 K, 98197 kPa | 0.2988 W/m/K
373.23 K, 599 kPa | 0.2224 W/m/K
373.23 K, 4315 kPa | 0.2265 W/m/K
373.23 K, 4316 kPa | 0.2258 W/m/K and 0.2256 W/m/K
373.23 K, 5171 kPa | 0.2262 W/m/K
373.23 K, 10126 kPa | 0.2289 W/m/K
373.23 K, 10127 kPa | 0.2291 W/m/K
373.23 K, 10219 kPa | 0.2296 W/m/K and 0.2295 W/m/K and 0.2298 W/m/K
373.23 K, 30052 kPa | 0.2428 W/m/K and 0.2427 W/m/K
373.23 K, 30053 kPa | 0.2422 W/m/K
373.23 K, 30119 kPa | 0.2438 W/m/K
373.23 K, 30120 kPa | 0.2437 W/m/K and 0.2433 W/m/K
373.23 K, 30122 kPa | 0.2432 W/m/K
373.23 K, 49936 kPa | 0.2599 W/m/K and 0.2582 W/m/K and 0.2587 W/m/K
373.23 K, 50144 kPa | 0.2589 W/m/K and 0.2588 W/m/K
373.23 K, 69997 kPa | 0.2756 W/m/K
373.23 K, 69998 kPa | 0.2753 W/m/K and 0.2751 W/m/K
373.23 K, 97555 kPa | 0.3001 W/m/K
373.23 K, 97558 kPa | 0.2995 W/m/K
373.23 K, 97560 kPa | 0.2989 W/m/K
373.23 K, 98190 kPa | 0.2987 W/m/K
373.23 K, 98193 kPa | 0.2983 W/m/K
373.24 K, 10126 kPa | 0.2296 W/m/K
423.25 K, 5114 kPa | 0.2475 W/m/K
423.25 K, 10105 kPa | 0.2494 W/m/K and 0.2502 W/m/K
423.25 K, 30087 kPa | 0.262 W/m/K and 0.2619 W/m/K and 0.2615 W/m/K
423.25 K, 50102 kPa | 0.2764 W/m/K
423.25 K, 70147 kPa | 0.2939 W/m/K
423.25 K, 70150 kPa | 0.2927 W/m/K
423.25 K, 70155 kPa | 0.2923 W/m/K
423.25 K, 96975 kPa | 0.314 W/m/K
423.25 K, 96978 kPa | 0.3137 W/m/K
423.25 K, 96980 kPa | 0.3142 W/m/K
423.26 K, 403 kPa | 0.2426 W/m/K
423.26 K, 404 kPa | 0.2418 W/m/K
423.26 K, 5113 kPa | 0.2477 W/m/K
423.26 K, 5114 kPa | 0.2476 W/m/K
423.26 K, 10104 kPa | 0.2499 W/m/K
423.26 K, 50100 kPa | 0.2771 W/m/K and 0.2762 W/m/K
423.27 K, 400 kPa | 0.2421 W/m/K
423.27 K, 402 kPa | 0.2431 W/m/K
473.27 K, 10065 kPa | 0.2681 W/m/K and 0.2687 W/m/K
473.27 K, 30123 kPa | 0.2799 W/m/K
473.27 K, 30124 kPa | 0.28 W/m/K and 0.2803 W/m/K
473.27 K, 70155 kPa | 0.3079 W/m/K
473.27 K, 70156 kPa | 0.3088 W/m/K
473.27 K, 70160 kPa | 0.3069 W/m/K
473.27 K, 97457 kPa | 0.3277 W/m/K
473.27 K, 97459 kPa | 0.3262 W/m/K
473.27 K, 97460 kPa | 0.3282 W/m/K
473.28 K, 407 kPa | 0.2609 W/m/K
473.28 K, 408 kPa | 0.261 W/m/K
473.28 K, 409 kPa | 0.2611 W/m/K
473.28 K, 5166 kPa | 0.2673 W/m/K
473.28 K, 5167 kPa | 0.267 W/m/K and 0.2671 W/m/K
473.28 K, 10065 kPa | 0.2691 W/m/K
473.28 K, 50176 kPa | 0.294 W/m/K
473.28 K, 50178 kPa | 0.2937 W/m/K
473.28 K, 50179 kPa | 0.292 W/m/K
473.29 K, 408 kPa | 0.2613 W/m/K
573.26 K, 50202 kPa | 0.3283 W/m/K
573.26 K, 50208 kPa | 0.3253 W/m/K
573.26 K, 96979 kPa | 0.356 W/m/K
573.26 K, 96990 kPa | 0.3549 W/m/K
573.26 K, 97001 kPa | 0.3548 W/m/K
573.27 K, 5202 kPa | 0.3043 W/m/K and 0.3057 W/m/K and 0.3047 W/m/K
573.27 K, 10155 kPa | 0.3066 W/m/K and 0.3072 W/m/K
573.27 K, 10156 kPa | 0.3066 W/m/K
573.27 K, 30167 kPa | 0.3171 W/m/K and 0.3173 W/m/K and 0.3175 W/m/K
573.27 K, 50204 kPa | 0.3274 W/m/K
573.27 K, 70099 kPa | 0.3376 W/m/K
573.27 K, 70106 kPa | 0.3381 W/m/K
573.27 K, 70114 kPa | 0.3387 W/m/K
573.28 K, 365 kPa | 0.2934 W/m/K
573.28 K, 367 kPa | 0.2929 W/m/K
573.28 K, 369 kPa | 0.2931 W/m/K
672.87 K, 30056 kPa | 0.3514 W/m/K
672.87 K, 30063 kPa | 0.3522 W/m/K
672.87 K, 30074 kPa | 0.3514 W/m/K
672.87 K, 50096 kPa | 0.36 W/m/K
672.87 K, 50118 kPa | 0.3625 W/m/K
672.87 K, 98041 kPa | 0.3854 W/m/K
672.87 K, 98074 kPa | 0.3853 W/m/K
672.87 K, 98109 kPa | 0.3873 W/m/K
672.88 K, 5137 kPa | 0.342 W/m/K
672.88 K, 5140 kPa | 0.344 W/m/K
672.88 K, 5143 kPa | 0.3429 W/m/K
672.88 K, 5147 kPa | 0.343 W/m/K
672.88 K, 10059 kPa | 0.3459 W/m/K
672.88 K, 10060 kPa | 0.3456 W/m/K
672.88 K, 10061 kPa | 0.3445 W/m/K
672.88 K, 50107 kPa | 0.3616 W/m/K
672.88 K, 70012 kPa | 0.3693 W/m/K
672.88 K, 70030 kPa | 0.3711 W/m/K
672.88 K, 70044 kPa | 0.3699 W/m/K
672.89 K, 304 kPa | 0.3296 W/m/K and 0.329 W/m/K
672.89 K, 305 kPa | 0.329 W/m/K
672.89 K, 306 kPa | 0.3287 W/m/K
771.9 K, 29994 kPa | 0.3905 W/m/K
771.9 K, 30036 kPa | 0.3906 W/m/K
771.9 K, 49904 kPa | 0.3973 W/m/K
771.9 K, 49932 kPa | 0.3973 W/m/K
771.9 K, 70405 kPa | 0.408 W/m/K
771.9 K, 70444 kPa | 0.4037 W/m/K
771.9 K, 70484 kPa | 0.4065 W/m/K
771.9 K, 98954 kPa | 0.4176 W/m/K
771.9 K, 99008 kPa | 0.417 W/m/K
771.9 K, 99143 kPa | 0.4168 W/m/K
771.9 K, 99205 kPa | 0.4188 W/m/K
771.91 K, 5144 kPa | 0.3835 W/m/K
771.91 K, 10086 kPa | 0.3838 W/m/K
771.91 K, 10092 kPa | 0.3825 W/m/K
771.91 K, 10100 kPa | 0.3836 W/m/K
771.91 K, 10109 kPa | 0.3825 W/m/K
771.91 K, 30014 kPa | 0.3888 W/m/K
771.91 K, 30058 kPa | 0.39 W/m/K
771.91 K, 49879 kPa | 0.3964 W/m/K
771.91 K, 70520 kPa | 0.4053 W/m/K
771.92 K, 378 kPa | 0.3679 W/m/K
771.92 K, 381 kPa | 0.3675 W/m/K
771.92 K, 383 kPa | 0.3671 W/m/K
771.92 K, 386 kPa | 0.3678 W/m/K
771.92 K, 5136 kPa | 0.3832 W/m/K
771.92 K, 5140 kPa | 0.3835 W/m/K
